Measured values taken from US6737383B1, “Herbicidal oxadiazolidines” (priority 1999, dated 2004).

Columns and labels:
bedstraw = assay: Test B pre/postemergence bedstraw; type: in vivo, Galium aparine
In short: (§1)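 Test chemicals in a non-phytotoxic solvent mixture with surfactant were sprayed preemergence onto planted seeds and postemergence onto plants 2 to 18 cm tall (1- to 4-leaf stage). After twelve to sixteen days in a greenhouse, injury was visually rated against untreated controls from 0 (no effect) to 10 (complete control).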

blackgrass = assay: Test B pre/postemergence blackgrass; type: in vivo, Alopecurus myosuroides
In short: as §1

surinam grass = assay: Test B pre/postemergence surinam grass; type: in vivo, Brachiaria decumbens
In short: as §1

cocklebur = assay: Test B pre/postemergence cocklebur; type: in vivo, Xanthium strumarium
In short: as §1

corn = assay: Test B pre/postemergence corn; type: in vivo, Zea mays
In short: as §1

crabgrass = assay: Test B pre/postemergence crabgrass; type: in vivo, Digitaria sanguinalis
In short: as §1

giant foxtail = assay: Test B pre/postemergence giant foxtail; type: in vivo, Setaria faberii
In short: as §1

morningglory = assay: Test B pre/postemergence morningglory; type: in vivo, Ipomoea hederacea
In short: as §1

pigweed = assay: Test B pre/postemergence pigweed; type: in vivo, Amaranthus retroflexus; details: for Plant response rating, Redroot pigweed: Postemergence
In short: as §1

rape = assay: Test B pre/postemergence rape; type: in vivo, Brassica napus
In short: as §1

soybean = assay: Test B pre/postemergence soybean; type: in vivo, Glycine max; details: for Plant response rating, Soybean: Postemergence
In short: as §1

sugar beet = assay: Test B pre/postemergence sugar beet; type: in vivo, Beta vulgaris; details: for Plant response rating, Sugarbeets: Postemergence
In short: as §1

velvetleaf = assay: Test B pre/postemergence velvetleaf; type: in vivo, Abutilon theophrasti; details: for Plant response rating, Velvetleaf: Postemergence
In short: as §1

wheat = assay: Test B pre/postemergence wheat; type: in vivo, Triticum aestivum; details: for Plant response rating, Wheat: Postemergence
In short: as §1

wild oat = assay: Test B pre/postemergence wild oat; type: in vivo, Avena fatua; details: for Plant response rating, Wild oats: Postemergence
In short: as §1

purple nutsedge = assay: Test B pre/postemergence purple nutsedge; type: in vivo, Cyperus rotundus
In short: as §1

rice = assay: Test B flood test rice; type: in vivo, Oryza sativa; details: Rate 250 g/ha; Pre-emergence (flood test species); scale 0 to 10, 0 is no effect, 10 is complete control
In short: (§2)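 Read-out is a visual response score from 0 (no effect) to 10 (complete control), assigned by comparison with untreated controls. Treatment was applied at the 2-leaf stage, and plants stayed in the greenhouse for twelve to sixteen days before scoring.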

smallflower flatsedge = assay: Test B flood test smallflower flatsedge; type: in vivo, Cyperus difformis; details: Rate 250 g/ha; Pre-emergence (flood test species); scale 0 to 10, 0 is no effect, 10 is complete control
In short: as §2

duck salad = assay: Test B flood test duck salad; type: in vivo, Heteranthera limosa; details: Rate 250 g/ha; Pre-emergence (flood test species); scale 0 to 10, 0 is no effect, 10 is complete control
In short: as §2

bamyardgrass = assay: Test B flood test barnyardgrass; type: in vivo, Echinochloa crus-galli; details: Rate 250 g/ha; Pre-emergence (flood test species); scale 0 to 10, 0 is no effect, 10 is complete control
In short: as §2

[1] = Postemergence, Rate 62 g/ha, scale of 0 to 10, 0 is no effect, 10 is complete control
[2] = Preemergence, Rate 62 g/ha, scale 0 to 10 (0 no effect, 10 complete control)
[3] = Preemergence, Rate 125 g/ha, scale 0 to 10, 0 is no effect, 10 is complete control
[4] = Preemergence, Rate 500 g/ha, scale of 0 to 10 where 0 is no effect and 10 is complete control
[5] = Postemergence, Rate 125 g/ha, scale 0 to 10, 0 is no effect, 10 is complete control
[6] = Postemergence, Rate 500 g/ha, scale of 0 to 10 where 0 is no effect and 10 is complete control
[7] = Rate 250 g/ha, Postemergence, scale of 0 to 10 where 0 is no effect and 10 is complete control
[8] = Rate 500 g/ha, scale of 0 to 10 where 0 is no effect and 10 is complete control
[9] = Rate 250 g/ha, scale of 0 to 10 where 0 is no effect and 10 is complete control

Cc1noc(C)c1Cn1c(=O)on(C(=O)N(c2ccccc2)C(C)C)c1=O [Compound 569]
Bedstraw plant response rating (bedstraw; [1]): 0 | Bedstraw plant response rating (bedstraw; [2]): 0 | Bedstraw plant response rating (bedstraw; [3]): 3 | Bedstraw plant response rating (0 to 10 scale) (bedstraw; Preemergence, Rate 250 g/ha): 0 | Bedstraw plant response rating (bedstraw; [4]): 0 | Blackgrass plant response rating (blackgrass; [1]): 0 | Blackgrass plant response rating (blackgrass; [5]): 0 | Plant response rating, Blackgrass (blackgrass; [6]): 3 | Blackgrass plant response rating (blackgrass; [2]): 0 | Blackgrass plant response rating (blackgrass; [3]): 0 | Blackgrass plant response rating (0 to 10 scale) (blackgrass; Preemergence, Rate 250 g/ha): 9 | Blackgrass plant response rating (blackgrass; [4]): 9 | Plant response rating, Blackgrass (blackgrass; [7]): 2 | B. signalgrass plant response rating (surinam grass; [1]): 0 | B. signalgrass plant response rating (surinam grass; [5]): 0 | Plant response rating, B. signalgrass (surinam grass; [6]): 4 | B. signalgrass plant response rating (surinam grass; [2]): 0 | B. signalgrass plant response rating (surinam grass; [3]): 9 | B. signalgrass plant response rating (0 to 10 scale, 0 is no effect, 10 is complete control) (surinam grass; Preemergence, Rate 250 g/ha): 9 | B. signalgrass plant response rating (surinam grass; [4]): 9 | Plant response rating, B. signalgrass (surinam grass; [7]): 0 | Cocklebur plant response rating (cocklebur; [1]): 0 | Cocklebur plant response rating (cocklebur; [5]): 2 | Plant response rating, Cocklebur (cocklebur; [6]): 2 | Cocklebur plant response rating (cocklebur; [2]): 0 | Cocklebur plant response rating (cocklebur; [3]): 0 | Cocklebur plant response rating (0 to 10 scale) (cocklebur; Preemergence, Rate 250 g/ha): 0 | Cocklebur plant response rating (cocklebur; [4]): 0 | Plant response rating, Cocklebur (cocklebur; [7]): 2 | Corn plant response rating (corn; [1]): 0 | Corn plant response rating (corn; [5]): 0 | Plant response rating, Corn (corn; [6]): 2 | Corn plant response rating (corn; [2]): 0 | Corn plant response rating (corn; [3]): 0 | Corn plant response rating (0 to 10 scale) (corn; Preemergence, Rate 250 g/ha): 0 | Corn plant response rating (corn; [4]): 9 | Plant response rating, Corn (corn; [7]): 0 | Crabgrass plant response rating (crabgrass; [1]): 0 | Crabgrass plant response rating (crabgrass; [5]): 0 | Plant response rating, Crabgrass (crabgrass; [6]): 6 | Crabgrass plant response rating (crabgrass; [2]): 7 | Crabgrass plant response rating (crabgrass; [3]): 9 | Crabgrass plant response rating (0 to 10 scale) (crabgrass; Preemergence, Rate 250 g/ha): 9 | Crabgrass plant response rating (crabgrass; [4]): 9 | Plant response rating, Crabgrass (crabgrass; [7]): 6 | Giant foxtail plant response rating (giant foxtail; [1]): 0 | Giant foxtail plant response rating (giant foxtail; [5]): 3 | Plant response rating, Giant foxtail (giant foxtail; [6]): 4 | Giant foxtail plant response rating (giant foxtail; [2]): 9 | Giant foxtail plant response rating (giant foxtail; [3]): 9 | Giant foxtail plant response rating (0 to 10 scale) (giant foxtail; Preemergence, Rate 250 g/ha): 9 | Giant foxtail plant response rating (giant foxtail; [4]): 10 | Plant response rating, Giant foxtail (giant foxtail; [7]): 4 | Morningglory plant response rating (morningglory; [1]): 3 | Morningglory plant response rating (morningglory; [5]): 10 | Plant response rating, Morningglory (morningglory; [6]): 10 | Morningglory plant response rating (morningglory; [2]): 0 | Morningglory plant response rating (morningglory; [3]): 0 | Morningglory plant response rating (0 to 10 scale) (morningglory; Preemergence, Rate 250 g/ha): 0 | Morningglory plant response rating (morningglory; [4]): 0 | Plant response rating, Morningglory (morningglory; [7]): 10 | Plant response rating, Redroot pigweed (pigweed; [8]): 4 | Redroot pigweed plant response rating (pigweed; [2]): 7 | Redroot pigweed plant response rating (pigweed; [3]): 9 | Redroot pigweed plant response rating (0 to 10 scale) (pigweed; Preemergence, Rate 250 g/ha): 9 | Redroot pigweed plant response rating (pigweed; [4]): 10 | Plant response rating, Redroot pigweed (pigweed; [9]): 4 | Rape plant response rating (rape; [1]): 0 | Rape plant response rating (rape; [5]): 0 | Plant response rating, Rape (rape; [6]): 0 | Rape plant response rating (rape; [2]): 0 | Rape plant response rating (rape; [3]): 0 | Rape plant response rating (0 to 10 scale) (rape; Preemergence, Rate 250 g/ha): 4 | Rape plant response rating (rape; [4]): 9 | Plant response rating, Rape (rape; [7]): 0 | Plant response rating, Soybean (soybean; [8]): 4 | Soybean plant response rating (soybean; [2]): 0 | Soybean plant response rating (soybean; [3]): 0 | Soybean plant response rating (0 to 10 scale) (soybean; Preemergence, Rate 250 g/ha): 0 | Soybean plant response rating (soybean; [4]): 0 | Plant response rating, Soybean (soybean; [9]): 4 | Plant response rating, Sugarbeets (sugar beet; [8]): 0 | Sugarbeets plant response rating (sugar beet; [2]): 0 | Sugarbeets plant response rating (sugar beet; [3]): 0 | Sugarbeets plant response rating (0 to 10 scale) (sugar beet; Preemergence, Rate 250 g/ha): 0 | Sugarbeets plant response rating (sugar beet; [4]): 3 | Plant response rating, Sugarbeets (sugar beet; [9]): 0 | Plant response rating, Velvetleaf (velvetleaf; [8]): 3 | Velvetleaf plant response rating (velvetleaf; [2]): 0 | Velvetleaf plant response rating (velvetleaf; [3]): 0 | Velvetleaf plant response rating (0 to 10 scale) (velvetleaf; Preemergence, Rate 250 g/ha): 0 | Velvetleaf plant response rating (velvetleaf; [4]): 7 | Plant response rating, Velvetleaf (velvetleaf; [9]): 2 | Plant response rating, Wheat (wheat; [8]): 0 | Wheat plant response rating (wheat; [2]): 0 | Wheat plant response rating (wheat; [3]): 0 | Wheat plant response rating (0 to 10 scale) (wheat; Preemergence, Rate 250 g/ha): 0 | Wheat plant response rating (wheat; [4]): 4 | Plant response rating, Wheat (wheat; [9]): 0 | Plant response rating, Wild oats (wild oat; [8]): 0 | Wild oats plant response rating (wild oat; [2]): 0 | Wild oats plant response rating (wild oat; [3]): 0 | Wild oats plant response rating (0 to 10 scale) (wild oat; Preemergence, Rate 250 g/ha): 6 | Wild oats plant response rating (wild oat; [4]): 9 | Plant response rating, Wild oats (wild oat; [9]): 0 | Nutsedge plant response rating (purple nutsedge; [1]): 0 | Nutsedge plant response rating (purple nutsedge; [5]): 0 | Plant response rating, Nutsedge (purple nutsedge; [6]): 0 | Nutsedge plant response rating (purple nutsedge; [2]): 0 | Nutsedge plant response rating (purple nutsedge; [3]): 0 | Nutsedge plant response rating (0 to 10 scale) (purple nutsedge; Preemergence, Rate 250 g/ha): 0 | Nutsedge plant response rating (purple nutsedge; [4]): 0 | Plant response rating, Nutsedge (purple nutsedge; [7]): 0 | Rice plant response rating (rice): 0 | S. Flatsedge plant response rating (smallflower flatsedge): 0 | Ducksalad plant response rating (duck salad): 0 | Barnyardgrass plant response rating (bamyardgrass): 0
